Values joined by “and” are separate entries in the source; they are usually repeats but may differ in a detail not shown here. Equal values may be shown once. One block for each compound: values may come before it.
Tested on: 967376-340-R-J2-PDC multicell spheroid viability
Assay: Anticancer human tumor 967376-340-R-J2-PDC patient-derived colon adenocarcinoma cell line growth inhibition [PI3K]
Conditions: for viability, T/C: stronger effect = lower value
Procedure, shortened: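 Agents were dosed from a top concentration near clinical Cmax (otherwise 10 microM) in half-log decrements, alone or combined with PI3K inhibitors. The spheroids contain tumor cells plus endothelial (HUVEC) and MSC stroma; viability is measured.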

[1] = curve of first compound, second compound 0.00316 µM
[2] = curve of first compound, second compound 0.01 µM
[3] = curve of first compound, second compound 0.0316 µM
[4] = curve of first compound, second compound 0.1 µM
[5] = curve of first compound, second compound 0.316 µM
[6] = curve of first compound, second compound 1 µM
[7] = second compound 0.00316 µM, first compound 0.0316 µM
[8] = second compound 0.00316 µM, first compound 0.1 µM
[9] = second compound 0.01 µM, first compound 0.0316 µM
[10] = second compound 0.01 µM, first compound 0.1 µM
[11] = second compound 0.0316 µM, first compound 0.0316 µM
[12] = second compound 0.0316 µM, first compound 0.1 µM
[13] = second compound 0.1 µM, first compound 0.0316 µM
[14] = second compound 0.1 µM, first compound 0.1 µM
[15] = second compound 0.316 µM, first compound 0.0316 µM
[16] = second compound 0.316 µM, first compound 0.1 µM
[17] = second compound 1 µM, first compound 0.0316 µM
[18] = second compound 1 µM, first compound 0.1 µM
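Note: spheroids exposed to agents for 7 days before read-out.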
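Throughout, for viability, T/C: luminescence used as surrogate of cell viability.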

IC50 [1]: > 10000 nM
IC50 [2]: > 10000 nM
IC50 [3]: > 10000 nM
IC50 [4]: > 10000 nM
IC50 [5]: > 10000 nM
IC50 [6]: 46.5 nM
SMILES: Cn1nccc1Nc1nccc(-c2ccn(C(CO)c3ccc(Cl)c(F)c3)c(=O)c2)n1 (stereo unspecified) + CC(Nc1ccc2c(c1)OCCn1cc(N3C(=O)OCC3C(F)F)nc1-2)C(N)=O
viability, T/C [7]: 100%
viability, T/C [8]: 89.8%
viability, T/C (second compound 0.00316 µM, first compound 0.316 µM): 105%
viability, T/C (second compound 0.00316 µM, first compound 1 µM): 71.5%
viability, T/C (second compound 0.00316 µM, first compound 3.16 µM): 108%
viability, T/C (second compound 0.00316 µM, first compound 10 µM): 101%
viability, T/C [9]: 107%
viability, T/C [10]: 67.5%
viability, T/C (second compound 0.01 µM, first compound 0.316 µM): 81%
viability, T/C (second compound 0.01 µM, first compound 1 µM): 82.2%
viability, T/C (second compound 0.01 µM, first compound 3.16 µM): 91.8%
viability, T/C (second compound 0.01 µM, first compound 10 µM): 102%
viability, T/C [11]: 80.8%
viability, T/C [12]: 101%
viability, T/C (second compound 0.0316 µM, first compound 0.316 µM): 76.8%
viability, T/C (second compound 0.0316 µM, first compound 1 µM): 92%
viability, T/C (second compound 0.0316 µM, first compound 3.16 µM): 70.9%
viability, T/C (second compound 0.0316 µM, first compound 10 µM): 85.3%
viability, T/C [13]: 72.3%
viability, T/C [14]: 65.6%
viability, T/C (second compound 0.1 µM, first compound 0.316 µM): 79.3%
viability, T/C (second compound 0.1 µM, first compound 1 µM): 78.4%
viability, T/C (second compound 0.1 µM, first compound 3.16 µM): 72.9%
viability, T/C (second compound 0.1 µM, first compound 10 µM): 70.3%
viability, T/C [15]: 62.5%
viability, T/C [16]: 68%
viability, T/C (second compound 0.316 µM, first compound 0.316 µM): 60.2%
viability, T/C (second compound 0.316 µM, first compound 1 µM): 78%
viability, T/C (second compound 0.316 µM, first compound 3.16 µM): 63.1%
viability, T/C (second compound 0.316 µM, first compound 10 µM): 46.6%
viability, T/C [17]: 49.6%
viability, T/C [18]: 48.3%
viability, T/C (second compound 1 µM, first compound 0.316 µM): 48.4%
viability, T/C (second compound 1 µM, first compound 1 µM): 41.6%
viability, T/C (second compound 1 µM, first compound 3.16 µM): 32.3%
viability, T/C (second compound 1 µM, first compound 10 µM): 31.2%

IC50 (compound alone, run of 06/13/2023): > 10000 nM
SMILES: CC(Nc1ncnc2nc[nH]c12)c1cc2cccc(Cl)c2c(=O)n1-c1ccccc1 (stereo unspecified)
viability, T/C (compound 0.0316 µM): 94.5% [middle of 8 runs]
viability, T/C (compound 0.316 µM): 89% [middle of 8 runs]
viability, T/C (compound 1 µM): 94.5% [middle of 8 runs]

IC50 (curve of compound): > 10000 nM
SMILES: C[C@@H](NC(=O)c1ncnc(N)c1Cl)c1ncc(C(=O)Nc2cc(C(F)(F)F)c(Cl)cn2)s1
viability, T/C (compound 0.1 µM): 95.8% [middle of 4 runs]
viability, T/C (compound 0.316 µM): 94% [middle of 4 runs]
viability, T/C (compound 1 µM): 110% [middle of 4 runs]
viability, T/C (compound 3.16 µM): 107% [middle of 4 runs]
viability, T/C (compound 10 µM): 109% [middle of 4 runs]

IC50 (curve of compound): > 100 nM and 96.7 nM
SMILES: CC(C)n1nc(-c2ccc3oc(N)nc3c2)c2c(N)ncnc21
viability, T/C (compound 0.000316 µM): 103% [middle of 4 runs]
viability, T/C (compound 0.00316 µM): 101% [middle of 4 runs]
viability, T/C (compound 0.0316 µM): 80.7% [middle of 4 runs]
viability, T/C (compound 0.1 µM): 59.2% [middle of 4 runs]

IC50 [3]: 1460 nM
IC50 [4]: 2110 nM
IC50 [5]: 1920 nM
IC50 [6]: 1330 nM
IC50 (curve of first compound, second compound 3.16 µM): 1340 nM
IC50 (curve of first compound, second compound 10 µM): 666 nM
SMILES: Cn1cnc2c(F)c(Nc3ccc(Br)cc3Cl)c(C(=O)NOCCO)cc21 + CC(Nc1ncnc2nc[nH]c12)c1cc2cccc(Cl)c2c(=O)n1-c1ccccc1
viability, T/C (second compound 0.0316 µM, first compound 0.00949 µM): 73.5%
viability, T/C (second compound 0.0316 µM, first compound 0.03 µM): 112%
viability, T/C (second compound 0.0316 µM, first compound 0.0949 µM): 95.4%
viability, T/C (second compound 0.0316 µM, first compound 0.3 µM): 75.5%
viability, T/C (second compound 0.0316 µM, first compound 0.949 µM): 61.4%
viability, T/C (second compound 0.0316 µM, first compound 3 µM): 34.5%
viability, T/C (second compound 0.1 µM, first compound 0.00949 µM): 106%
viability, T/C (second compound 0.1 µM, first compound 0.03 µM): 107%
viability, T/C (second compound 0.1 µM, first compound 0.0949 µM): 87.5%
viability, T/C (second compound 0.1 µM, first compound 0.3 µM): 102%
viability, T/C (second compound 0.1 µM, first compound 0.949 µM): 74.7%
viability, T/C (second compound 0.1 µM, first compound 3 µM): 38.5%
viability, T/C (second compound 0.316 µM, first compound 0.00949 µM): 78.8%
viability, T/C (second compound 0.316 µM, first compound 0.03 µM): 104%
viability, T/C (second compound 0.316 µM, first compound 0.0949 µM): 97.9%
viability, T/C (second compound 0.316 µM, first compound 0.3 µM): 78.3%
viability, T/C (second compound 0.316 µM, first compound 0.949 µM): 61.9%
viability, T/C (second compound 0.316 µM, first compound 3 µM): 43%
viability, T/C (second compound 1 µM, first compound 0.00949 µM): 97.1%
viability, T/C (second compound 1 µM, first compound 0.03 µM): 97.4%
viability, T/C (second compound 1 µM, first compound 0.0949 µM): 90.1%
viability, T/C (second compound 1 µM, first compound 0.3 µM): 78.1%
viability, T/C (second compound 1 µM, first compound 0.949 µM): 64.5%
viability, T/C (second compound 1 µM, first compound 3 µM): 21.1%
viability, T/C (second compound 3.16 µM, first compound 0.00949 µM): 82%
viability, T/C (second compound 3.16 µM, first compound 0.03 µM): 83.6%
viability, T/C (second compound 3.16 µM, first compound 0.0949 µM): 70.7%
viability, T/C (second compound 3.16 µM, first compound 0.3 µM): 97%
viability, T/C (second compound 3.16 µM, first compound 0.949 µM): 61.6%
viability, T/C (second compound 3.16 µM, first compound 3 µM): 22.6%
viability, T/C (second compound 10 µM, first compound 0.00949 µM): 78.4%
viability, T/C (second compound 10 µM, first compound 0.03 µM): 64.3%
viability, T/C (second compound 10 µM, first compound 0.0949 µM): 69.2%
viability, T/C (second compound 10 µM, first compound 0.3 µM): 66%
viability, T/C (second compound 10 µM, first compound 0.949 µM): 43.1%
viability, T/C (second compound 10 µM, first compound 3 µM): 13.7%

IC50 [1]: > 100 nM
IC50 [2]: > 100 nM
IC50 [3]: > 100 nM
IC50 [4]: > 100 nM
IC50 [5]: > 100 nM
IC50 [6]: > 100 nM
SMILES: CC(=O)c1c(C)c2cnc(Nc3ccc(N4CCNCC4)cn3)nc2n(C2CCCC2)c1=O + CC(Nc1ccc2c(c1)OCCn1cc(N3C(=O)OCC3C(F)F)nc1-2)C(N)=O
viability, T/C (second compound 0.00316 µM, first compound 0.000316 µM): 111%
viability, T/C (second compound 0.00316 µM, first compound 0.001 µM): 79.3%
viability, T/C (second compound 0.00316 µM, first compound 0.00316 µM): 93.8%
viability, T/C (second compound 0.00316 µM, first compound 0.01 µM): 102%
viability, T/C [7]: 114%
viability, T/C [8]: 87.4%
viability, T/C (second compound 0.01 µM, first compound 0.000316 µM): 100%
viability, T/C (second compound 0.01 µM, first compound 0.001 µM): 101%
viability, T/C (second compound 0.01 µM, first compound 0.00316 µM): 96.4%
viability, T/C (second compound 0.01 µM, first compound 0.01 µM): 93%
viability, T/C [9]: 94.7%
viability, T/C [10]: 75.8%
viability, T/C (second compound 0.0316 µM, first compound 0.000316 µM): 92.7%
viability, T/C (second compound 0.0316 µM, first compound 0.001 µM): 88.4%
viability, T/C (second compound 0.0316 µM, first compound 0.00316 µM): 70.7%
viability, T/C (second compound 0.0316 µM, first compound 0.01 µM): 117%
viability, T/C [11]: 91.3%
viability, T/C [12]: 84.7%
viability, T/C (second compound 0.1 µM, first compound 0.000316 µM): 87.9%
viability, T/C (second compound 0.1 µM, first compound 0.001 µM): 78.8%
viability, T/C (second compound 0.1 µM, first compound 0.00316 µM): 96.3%
viability, T/C (second compound 0.1 µM, first compound 0.01 µM): 64.3%
viability, T/C [13]: 90.2%
viability, T/C [14]: 79.7%
viability, T/C (second compound 0.316 µM, first compound 0.000316 µM): 64.3%
viability, T/C (second compound 0.316 µM, first compound 0.001 µM): 74.7%
viability, T/C (second compound 0.316 µM, first compound 0.00316 µM): 72.8%
viability, T/C (second compound 0.316 µM, first compound 0.01 µM): 72.1%
viability, T/C [15]: 72.9%
viability, T/C [16]: 67.8%
viability, T/C (second compound 1 µM, first compound 0.000316 µM): 65%
viability, T/C (second compound 1 µM, first compound 0.001 µM): 64.2%
viability, T/C (second compound 1 µM, first compound 0.00316 µM): 77.8%
viability, T/C (second compound 1 µM, first compound 0.01 µM): 55.7%
viability, T/C [17]: 61.6%
viability, T/C [18]: 50.9%

From PubChem BioAssay AID1963962 (Molecular Pharmacology Branch, DTP, NCI, 2024)
